Data reported in patent publication US11021457B2, “Class of isoindolone-imide ring-1,3-dione-2-ene compounds, composition and use thereof” (WIGEN BIOMEDICINE TECHNOLOGY (SHANGHAI) CO., LTD., priority 2017, dated 2021).

What was measured:
Type in all cases: cell-based
Details in all cases: compound concentration 50 μM, 72 hours
[1] = system: A549; assay: Inhibition of tumor cell proliferation, CellTiter-Glo, A549
Procedure: (§1) For various cell lines, the corresponding complete medium was used, and culture was carried out in an incubator at 37° C. with 5% CO2. The cells were counted, and inoculated into a 96-well plate at 2000-10000 cells/100 μl per well according to the cell volume and growth rate. The suspended cells were treated immediately, and the adherent cells were treated after adherence. The CellTiter-Glo method was used to detect the changes in cell viability 72 hours after the administration, and the cell survival rate at different concentrations was calculated by a formula: Survival rate (%)=(RLU of treatment well−RLU of blank well)/(RLU of control well−RLU of blank well)×100.
(§2) Method for expressing the inhibitory activity of the compounds against the proliferation of tumor cells: Evaluation was made based on the cell survival rate at a compound concentration of 50 μM. 60≤survival rate (%)<90 is considered to have low inhibitory activity against the proliferation of tumor cells (+); 30<survival rate (%)≤60 is considered to have moderate inhibitory activity against the proliferation of tumor cells (++); and survival rate (%)≤30 is considered to have high inhibitory activity against the proliferation of tumor cells (+++).

[2] = system: K562; assay: Inhibition of tumor cell proliferation, CellTiter-Glo, K562
Procedure: as §1, §2

[3] = system: BxPC-3; assay: Inhibition of tumor cell proliferation, CellTiter-Glo, BxPC-3
Procedure: as §1, §2

[4] = system: RPMI-8226; assay: Inhibition of tumor cell proliferation, CellTiter-Glo, RPMI-8226
Procedure: as §1, §2

[5] = system: SU-DHL6; assay: Inhibition of tumor cell proliferation, CellTiter-Glo, SU-DHL6
Procedure: as §1, §2

[6] = system: MDA-MB-453; assay: Inhibition of tumor cell proliferation, CellTiter-Glo, MDA-MB-453
Procedure: as §1, §2

Row | SMILES | Inhibitory activity against proliferation (cell survival rate) A549 [1] | Inhibitory activity against proliferation (cell survival rate) K562 [2] | Inhibitory activity against proliferation (cell survival rate) BxPC-3 [3] | Inhibitory activity against proliferation (cell survival rate) RPMI-8226 [4] | Inhibitory activity against proliferation (cell survival rate) SU-DHL6 [5] | Inhibitory activity against proliferation (cell survival rate) MDA-MB-453 [6] | cell survival rate (% of control) at 50 µM ([1]; Homo sapiens, A549, read-out: Inhibitory activity against proliferation (cell survival rate) A549) [%] | cell survival rate (%) at 50 µM ([2]; Homo sapiens, K562, read-out: Inhibitory activity against proliferation (cell survival rate) K562) [%] | cell survival rate (%) at 50 µM ([3]; Homo sapiens, BXPC-3, read-out: Inhibitory activity against proliferation (cell survival rate) BxPC-3) [%] | cell survival rate (% of control) at 50 µM ([4]; Homo sapiens, RPMI-8226, read-out: Inhibitory activity against proliferation (cell survival rate) RPMI-8226) [%] | cell survival rate (% of control) at 50 µM ([5]; Homo sapiens, SU-DHL-6, read-out: Inhibitory activity against proliferation (cell survival rate) SU-DHL6) [%] | cell survival rate (%) at 50 µM ([6]; Homo sapiens, MDA-MB-453, read-out: Inhibitory activity against proliferation (cell survival rate) MDA-MB-453) [%]
1 | O=C1CCC(N2Cc3c(NC(=O)c4ccc(NC=C5C(=O)CC(c6ccccc6)CC5=O)nc4)cccc3C2=O)C(=O)N1 (stereo not drawn) [Compound 66] | +++ (survival rate (%)≤30) | +++ (survival rate (%)≤30) | + (60≤survival rate (%)<90) | + (60≤survival rate (%)<90) | +++ (survival rate (%)≤30) | ++ (30<survival rate (%)≤60) |  |  |  |  |  | 
2 | O=C1CCC(N2Cc3c(NC(=O)c4cccnc4NC=C4C(=O)CC(c5ccccc5)CC4=O)cccc3C2=O)C(=O)N1 (stereo not drawn) [Compound 67] | +++ (survival rate (%)≤30) | +++ (survival rate (%)≤30) | + (60≤survival rate (%)<90) | +++ (survival rate (%)≤30) | +++ (survival rate (%)≤30) | ++ (30<survival rate (%)≤60) |  |  |  |  |  | 
3 | O=C1CCC(N2C(=O)c3cccc(NS(=O)(=O)N4CCN(CCNC=C5C(=O)CC(c6ccccc6)CC5=O)CC4)c3C2=O)C(=O)N1 (stereo not drawn) [Compound 71] | +++ (survival rate (%)≤30) | +++ (survival rate (%)≤30) | + (60≤survival rate (%)<90) | +++ (survival rate (%)≤30) | +++ (survival rate (%)≤30) | +++ (survival rate (%)≤30) |  |  |  |  |  | 
4 | O=C1CCC(N2Cc3c(NS(=O)(=O)N4CCN(CCNC=C5C(=O)CC(c6ccccc6)CC5=O)CC4)cccc3C2=O)C(=O)N1 (stereo not drawn) [Compound 72] | + (60≤survival rate (%)<90) | +++ (survival rate (%)≤30) | + (60≤survival rate (%)<90) | + (60≤survival rate (%)<90) | +++ (survival rate (%)≤30) | + (60≤survival rate (%)<90) |  |  |  |  |  | 
5 | CC(Nc1cccc2c1CN(C1CCC(=O)NC1=O)C2=O)=C1C(=O)CC(c2ccccc2)CC1=O (stereo not drawn) [Compound 73] | +++ (survival rate (%)≤30) | +++ (survival rate (%)≤30) | + (60≤survival rate (%)<90) | + (60≤survival rate (%)<90) | +++ (survival rate (%)≤30) | +++ (survival rate (%)≤30) |  |  |  |  |  | 
6 | O=C1CCC(N2Cc3c(NC(CO)=C4C(=O)CC(c5ccccc5)CC4=O)cccc3C2=O)C(=O)N1 (stereo not drawn) [Compound 74] | + (60≤survival rate (%)<90) | + (60≤survival rate (%)<90) | + (60≤survival rate (%)<90) | + (60≤survival rate (%)<90) | + (60≤survival rate (%)<90) | + (60≤survival rate (%)<90) |  |  |  |  |  | 
7 | O=C1CCC(N2Cc3c(NC(=O)NCCNC=C4C(=O)CC(c5ccccc5)CC4=O)cccc3C2=O)C(=O)N1 (stereo not drawn) [Compound 77] | +++ (survival rate (%)≤30) | +++ (survival rate (%)≤30) | + (60≤survival rate (%)<90) | + (60≤survival rate (%)<90) | + (60≤survival rate (%)<90) | +++ (survival rate (%)≤30) |  |  |  |  |  | 
8 | O=C1CCC(N2Cc3c(NC(=O)OCCNC=C4C(=O)CC(c5ccccc5)CC4=O)cccc3C2=O)C(=O)N1 (stereo not drawn) [Compound 78] | +++ (survival rate (%)≤30) | +++ (survival rate (%)≤30) | + (60≤survival rate (%)<90) | + (60≤survival rate (%)<90) | + (60≤survival rate (%)<90) | +++ (survival rate (%)≤30) |  |  |  |  |  | 
9 | O=C1CCC(N2Cc3c(NC(=O)OCCN4CCN(CCNC=C5C(=O)CC(c6ccccc6)CC5=O)CC4)cccc3C2=O)C(=O)N1 (stereo not drawn) [Compound 79] | + (60≤survival rate (%)<90) | + (60≤survival rate (%)<90) | ++ (30<survival rate (%)≤60) | +++ (survival rate (%)≤30) | + (60≤survival rate (%)<90) | ++ (30<survival rate (%)≤60) |  |  |  |  |  | 
10 | O=C1CCC(N2C(=O)c3cccc(NC(=O)OCCN4CCN(CCNC=C5C(=O)CC(c6ccccc6)CC5=O)CC4)c3C2=O)C(=O)N1 (stereo not drawn) [Compound 80] | +++ (survival rate (%)≤30) | +++ (survival rate (%)≤30) | + (60≤survival rate (%)<90) | +++ (survival rate (%)≤30) | + (60≤survival rate (%)<90) | ++ (30<survival rate (%)≤60) |  |  |  |  |  | 
11 | O=C1CCC(N2Cc3c(NC(=O)Nc4ccccc4OC(=O)CCC(=O)OCCN4CCN(CCNC=C5C(=O)CC(c6ccccc6)CC5=O)CC4)cccc3C2=O)C(=O)N1 (stereo not drawn) [Compound 81] | +++ (survival rate (%)≤30) | +++ (survival rate (%)≤30) | + (60≤survival rate (%)<90) | + (60≤survival rate (%)<90) | +++ (survival rate (%)≤30) | ++ (30<survival rate (%)≤60) |  |  |  |  |  | 
12 | O=C1CCC(N2Cc3c(NC(=O)OCc4ccc(NC=C5C(=O)CC(c6ccccc6)CC5=O)nc4)cccc3C2=O)C(=O)N1 (stereo not drawn) [Compound 82] |  |  |  |  |  |  | ≤ 30 | 60 to 90 | 60 to 90 | 60 to 90 | ≤ 30 | 30 to 60
13 | O=C1CCC(N2C(=O)c3cccc(NC(=O)OCc4ccc(NC=C5C(=O)CC(c6ccccc6)CC5=O)nc4)c3C2=O)C(=O)N1 (stereo not drawn) [Compound 83] | + (60≤survival rate (%)<90) | + (60≤survival rate (%)<90) | + (60≤survival rate (%)<90) | + (60≤survival rate (%)<90) | + (60≤survival rate (%)<90) | ++ (30<survival rate (%)≤60) |  |  |  |  |  | 
14 | O=C1CCC(N2Cc3c(NC(=O)OCc4cnc(NC=C5C(=O)CC(c6ccccc6)CC5=O)s4)cccc3C2=O)C(=O)N1 (stereo not drawn) [Compound 84] | + (60≤survival rate (%)<90) | +++ (survival rate (%)≤30) | + (60≤survival rate (%)<90) | +++ (survival rate (%)≤30) | +++ (survival rate (%)≤30) | +++ (survival rate (%)≤30) |  |  |  |  |  | 
15 | O=C1CCC(N2Cc3c(NC(=O)OCOC(=O)C=CC(=O)N4CCN(CCNC=C5C(=O)CC(c6ccccc6)CC5=O)CC4)cccc3C2=O)C(=O)N1 (stereo not drawn) [Compound 85] | ++ (30<survival rate (%)≤60) | ++ (30<survival rate (%)≤60) | + (60≤survival rate (%)<90) | +++ (survival rate (%)≤30) | + (60≤survival rate (%)<90) | + (60≤survival rate (%)<90) |  |  |  |  |  | 
